Columns and labels:
[1] = molecular target: T1, hRIPK1 (aa 1-375) fusion protein (Homo sapiens, UniProt Q13546); assay: ADP-Glo kinase assay: catalytic activity of RIPK1 (autophosphorylation, conversion of ATP to ADP); type: biochemical
T1 construct: hRIPK1 (aa 1-375) fusion protein
T1 sequence (Q13546 1-375): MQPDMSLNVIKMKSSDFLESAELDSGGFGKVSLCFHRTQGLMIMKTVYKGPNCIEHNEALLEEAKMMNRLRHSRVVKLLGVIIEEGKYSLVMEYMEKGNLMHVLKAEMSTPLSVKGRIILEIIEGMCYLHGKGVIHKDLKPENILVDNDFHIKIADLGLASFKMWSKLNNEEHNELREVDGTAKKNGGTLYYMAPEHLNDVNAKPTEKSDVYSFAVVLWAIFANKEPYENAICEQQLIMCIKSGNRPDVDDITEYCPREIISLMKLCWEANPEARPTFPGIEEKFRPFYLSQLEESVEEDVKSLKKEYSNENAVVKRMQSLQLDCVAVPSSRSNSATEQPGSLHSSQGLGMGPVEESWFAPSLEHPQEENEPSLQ
In short: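 The readout was ADP-Glo luminescence after a 240 min rt autophosphorylation reaction with 50 μM ATP, following 30 min preincubation of 3.6 μg/ml hRIPK1 (aa 1-375) fusion with compound at 33300-1.69 nM final in 1% DMSO. Values came from Levenberg-Marquardt nonlinear fits.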

[2] = system: U937 cells; assay: Cellular assay in U937 cells: activity of RIPK1 inhibitors on TNFα/zVAD.fmk-induced cell death (necroptosis), CellTiter 96 AQueous (MTS) readout; type: cell-based; settings: Homo sapiens, U-937
In short: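 Necroptosis was measured by viable-cell MTS reduction (4 h, absorbance 490 nm) after overnight (18–24 h) 37° C culture. Cell suspensions of U937 cells carried TNFα (100 ng/ml) plus zVAD.fmk (50 μM) before compound was added. A 10-point curve (10 μM–0.26 nM or 1 μM–0.07 nM) was run in duplicate, normalised to the control lacking TNFα/zVAD.fmk.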

With `N#Cc1cc(F)cc([C@@H]2CCON2C(=O)[C@H]2CC[C@H](Cn3cnc4cc(F)ccc43)CC2)c1` [compound 48, trans-3-fluoro-5-((S)-2-(4-((5-fluoro-1H-benzo[d]imidazol-1-yl)methyl)cyclohexane-1-carbonyl)isoxazolidin-3-yl)benzonitrile] the IC50 [1] was 25 nM and the IC50 [2] was 15 nM.

`O=C([C@H]1CC[C@H](Cn2cnc3cc(F)ccc32)CC1)N1OCC[C@H]1c1cc(F)cc(F)c1` [compound 49, trans-((S)-3-(3,5-difluorophenyl)isoxazolidin-2-yl)(4-((5-fluoro-1H-benzo[d]imidazol-1-yl)methyl)cyclohexyl)methanone] gave an IC50 [1] of 21 nM and an IC50 [2] of 8 nM.

`Cc1nc2cc(F)ccc2n1C[C@H]1CC[C@H](C(=O)N2OCC[C@H]2c2cc(F)cc(C#N)c2)CC1` [compound 50, trans-3-fluoro-5-((S)-2-(4-((5-fluoro-2-methyl-1H-benzo[d]imidazol-1-yl)methyl)cyclohexane-1-carbonyl)isoxazolidin-3-yl)benzonitrile] was tested, and the IC50 [1] was 27 nM and the IC50 [2] was 29 nM.

`Cc1nc2cc(F)ccc2n1C[C@H]1CC[C@H](C(=O)N2OCC[C@H]2c2cc(F)cc(F)c2)CC1` [compound 51, trans-((S)-3-(3,5-difluorophenyl)isoxazolidin-2-yl)(4-((5-fluoro-2-methyl-1H-benzo[d]imidazol-1-yl)methyl)cyclohexyl)methanone] showed an IC50 [1] of 34 nM and an IC50 [2] of 17 nM.

Molecule `N#Cc1ccc2c(cnn2C[C@H]2CC[C@H](C(=O)N3OCC[C@H]3c3cc(F)cc(F)c3)CC2)c1` [compound 52, trans-1-((4-((S)-3-(3,5-difluorophenyl)isoxazolidine-2-carbonyl)cyclohexyl)methyl)-1H-indazole-5-carbonitrile] has an IC50 [1] of 15 nM and an IC50 [2] of 2 nM.

Molecule `N#Cc1cc(F)cc([C@@H]2CCON2C(=O)[C@H]2CC[C@H](Cn3ncc4cc(C#N)ccc43)CC2)c1` [compound 53, trans-1-((4-((S)-3-(3-cyano-5-fluorophenyl)isoxazolidine-2-carbonyl)cyclohexyl)methyl)-1H-indazole-5-carbonitrile] has an IC50 [1] of 17 nM and an IC50 [2] of 4 nM.

`N#Cc1cc(F)cc([C@@H]2CCON2C(=O)[C@H]2CC[C@H](Cn3ncc4cc(F)ccc43)CC2)c1` [compound 54, trans-3-fluoro-5-((S)-2-(4-((5-fluoro-1H-indazol-1-yl)methyl)cyclohexane-1-carbonyl)isoxazolidin-3-yl)benzonitrile] gave an IC50 [1] of 21 nM and an IC50 [2] of 6 nM.

In the case of `O=C([C@H]1CC[C@H](Cn2ncc3cc(F)ccc32)CC1)N1OCC[C@H]1c1cc(F)cc(F)c1` [compound 55, trans-((S)-3-(3,5-difluorophenyl)isoxazolidin-2-yl)(4-((5-fluoro-1H-indazol-1-yl)methyl)cyclohexyl)methanone], the IC50 [1] is reported as 21 nM and the IC50 [2] is reported as 3 nM.

Work on `N#Cc1cc(F)cc([C@@H]2CCON2C(=O)[C@H]2CC[C@H](Cn3cc4cc(F)ccc4n3)CC2)c1` [compound 56, trans-3-fluoro-5-((S)-2-(4-((5-fluoro-2H-indazol-2-yl)methyl)cyclohexane-1-carbonyl)isoxazolidin-3-yl)benzonitrile] yielded an IC50 [1] of 42 nM and an IC50 [2] of 109 nM.

`O=C([C@H]1CC[C@H](Cn2cc3cc(F)ccc3n2)CC1)N1OCC[C@H]1c1cc(F)cc(F)c1` [compound 57, trans-((S)-3-(3,5-difluorophenyl)isoxazolidin-2-yl)(4-((5-fluoro-2H-indazol-2-yl)methyl)cyclohexyl)methanone] showed an IC50 [1] of 27 nM and an IC50 [2] of 41 nM.

Molecule `N#Cc1ccc2nn(C[C@H]3CC[C@H](C(=O)N4OCC[C@H]4c4cc(F)cc(F)c4)CC3)cc2c1` [compound 58, trans-2-((4-((S)-3-(3,5-difluorophenyl)isoxazolidine-2-carbonyl)cyclohexyl)methyl)-2H-indazole-5-carbonitrile] has an IC50 [1] of 26 nM and an IC50 [2] of 32 nM.

`N#Cc1cc(F)cc([C@@H]2CCON2C(=O)[C@H]2CC[C@H](Cn3cc4cc(C#N)ccc4n3)CC2)c1` [compound 59, trans-2-((4-((S)-3-(3-cyano-5-fluorophenyl)isoxazolidine-2-carbonyl)cyclohexyl)methyl)-2H-indazole-5-carbonitrile] showed an IC50 [1] of 30 nM and an IC50 [2] of 166 nM.

`Cc1nn(C[C@H]2CC[C@H](C(=O)N3OCC[C@H]3c3cc(F)cc(F)c3)CC2)c2ccccc12` [compound 60, trans-((S)-3-(3,5-difluorophenyl)isoxazolidin-2-yl)(4-((3-methyl-1H-indazol-1-yl)methyl)cyclohexyl)methanone] showed an IC50 [1] of 14 nM and an IC50 [2] of 5 nM.

Work on `Cc1nn(C[C@H]2CC[C@H](C(=O)N3OCC[C@H]3c3cc(F)cc(C#N)c3)CC2)c2ccccc12` [compound 61, trans-3-fluoro-5-((S)-2-(4-((3-methyl-1H-indazol-1-yl)methyl)cyclohexane-1-carbonyl)isoxazolidin-3-yl)benzonitrile] yielded an IC50 [1] of 23 nM and an IC50 [2] of 11 nM.

Work on `Cc1c2ccccc2nn1C[C@H]1CC[C@H](C(=O)N2OCC[C@H]2c2cc(F)cc(F)c2)CC1` [compound 62, trans-((S)-3-(3,5-difluorophenyl)isoxazolidin-2-yl)(4-((3-methyl-2H-indazol-2-yl)methyl)cyclohexyl)methanone] yielded an IC50 [1] of 20 nM and an IC50 [2] of 22 nM.

`Cc1c2ccccc2nn1C[C@H]1CC[C@H](C(=O)N2OCC[C@H]2c2cc(F)cc(C#N)c2)CC1` [compound 63, trans-3-fluoro-5-((S)-2-(4-((3-methyl-2H-indazol-2-yl)methyl)cyclohexane-1-carbonyl)isoxazolidin-3-yl)benzonitrile] showed an IC50 [1] of 27 nM and an IC50 [2] of 55 nM.

Molecule `N#Cc1cncc([C@@H]2CCON2C(=O)[C@H]2CC[C@H](Cn3cnc4cc(F)c(C#N)cc43)CC2)c1` [compound 64, trans-1-((4-((S)-3-(5-cyanopyridin-3-yl)isoxazolidine-2-carbonyl)cyclohexyl)methyl)-5-fluoro-1H-benzo[d]imidazole-6-carbonitrile] has an IC50 [1] of 20 nM and an IC50 [2] of 47 nM.

`N#Cc1cncc([C@@H]2CCON2C(=O)[C@H]2CC[C@H](Cn3cnc4cc(C#N)c(F)cc43)CC2)c1` [compound 65, trans-1-((4-((S)-3-(5-cyanopyridin-3-yl)isoxazolidine-2-carbonyl)cyclohexyl)methyl)-6-fluoro-1H-benzo[d]imidazole-5-carbonitrile] was tested, and the IC50 [1] was 51 nM and the IC50 [2] was 164 nM.

Work on `N#Cc1cc(F)cc([C@@H]2CCON2C(=O)[C@H]2CC[C@H](Cn3ncc4cc(C#N)c(F)cc43)CC2)c1` [compound 66, trans-1-((4-((S)-3-(3-cyano-5-fluorophenyl)isoxazolidine-2-carbonyl)cyclohexyl)methyl)-6-fluoro-1H-indazole-5-carbonitrile] yielded an IC50 [1] of 18 nM and an IC50 [2] of 2 nM.

`N#Cc1cc2cnn(C[C@H]3CC[C@H](C(=O)N4OCC[C@H]4c4cc(F)cc(F)c4)CC3)c2cc1F` [compound 67, trans-1-((4-((S)-3-(3,5-difluorophenyl)isoxazolidine-2-carbonyl)cyclohexyl)methyl)-6-fluoro-1H-indazole-5-carbonitrile] was tested, and the IC50 [1] was 15 nM and the IC50 [2] was 2 nM.

Molecule `Cc1nn(C[C@H]2CC[C@H](C(=O)N3OCC[C@H]3c3cc(F)cc(F)c3)CC2)c2cc(F)c(C#N)cc12` [compound 68, trans-1-((4-((S)-3-(3,5-difluorophenyl)isoxazolidine-2-carbonyl)cyclohexyl)methyl)-6-fluoro-3-methyl-1H-indazole-5-carbonitrile] has an IC50 [1] of 25 nM and an IC50 [2] of 2 nM.

For `Cc1nn(C[C@H]2CC[C@H](C(=O)N3OCC[C@H]3c3cc(F)cc(C#N)c3)CC2)c2cc(F)c(C#N)cc12` [compound 69, trans-1-((4-((S)-3-(3-cyano-5-fluorophenyl)isoxazolidine-2-carbonyl)cyclohexyl)methyl)-6-fluoro-3-methyl-1H-indazole-5-carbonitrile], the IC50 [1] was 22 nM and the IC50 [2] was 5 nM.

With `N#Cc1cc(F)cc([C@@H]2CCON2C(=O)[C@H]2CC[C@H](Cn3cnc4cc(F)c(C(N)=O)cc43)CC2)c1` [compound 70, trans-1-((4-((S)-3-(3-cyano-5-fluorophenyl)isoxazolidine-2-carbonyl)cyclohexyl)methyl)-5-fluoro-1H-benzo[d]imidazole-6-carboxamide] the IC50 [1] was 44 nM and the IC50 [2] was 403 nM.

In the case of `NC(=O)c1cc2c(cc1F)ncn2C[C@H]1CC[C@H](C(=O)N2OCC[C@H]2c2cc(F)cc(F)c2)CC1` [compound 71, trans-1-((4-((S)-3-(3,5-difluorophenyl)isoxazolidine-2-carbonyl)cyclohexyl)methyl)-5-fluoro-1H-benzo[d]imidazole-6-carboxamide], the IC50 [1] is reported as 37 nM and the IC50 [2] is reported as 93 nM.

In the case of `N#Cc1cc(F)cc([C@@H]2CCON2C(=O)[C@H]2CC[C@H](Cn3ncc4cc(C(N)=O)ccc43)CC2)c1` [compound 72, trans-1-((4-((S)-3-(3-cyano-5-fluorophenyl)isoxazolidine-2-carbonyl)cyclohexyl)methyl)-1H-indazole-5-carboxamide], the IC50 [1] is reported as 30 nM and the IC50 [2] is reported as 10 nM.

Reference: patent publication US20260158009A1 (GENZYME CORPORATION, priority 2023, published 2026)
